# Results: US10131606B2, “Tetrarylmethane ethers” (Rohm and Haas Company, priority 2014, dated 2018)
row,melting point [°C],Compound
1,103 to 105,"CCCCCCCOc1ccc(C(c2ccccc2)(c2ccccc2)c2ccc(OCCCCCCC)cc2)cc1 [BHeptTPM, Bis(4-(heptyloxy)phenyl)diphenylmethane]"
2,120 to 122,CCCCCCOc1ccc(C(c2ccccc2)(c2ccccc2)c2ccc(OCCCCCC)cc2)cc1 [BHexTPM]
3,84.5 to 86.5,"CCCCCCCCOc1ccc(C(c2ccccc2)(c2ccccc2)c2ccc(OCCCCCCCC)cc2)cc1 [BOctTPM, Bis(4-(octyloxy)phenyl)diphenylmethane]"
4,110 to 113,"CCCCCOc1ccc(C(c2ccccc2)(c2ccccc2)c2ccc(OCCCCC)cc2)cc1 [BPentTPM, Bis(4-(pentyloxy)phenyl)diphenylmethane]"
